Experimental data: PubChem BioAssay (NCI)
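Each compound was tested at five concentrations against cells in 96-well plates for 48 hours. Definition used: TGI = concentration required for complete inhibition of growth.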

Key:
Assay in all cases: DTP human tumour cell line panel, 48 h
BT-549 breast = test system: BT-549 breast
CAKI-1 renal = test system: CAKI-1 renal
COLO 205 colon = test system: COLO 205 colon
SNB-19 CNS = test system: SNB-19 CNS
RXF 393 renal = test system: RXF 393 renal
SW-620 colon = test system: SW-620 colon
UACC-257 melanoma = test system: UACC-257 melanoma
SR leukemia = test system: SR leukemia
RPMI-8226 leukemia = test system: RPMI-8226 leukemia
MDA-N = test system: MDA-N
786-0 renal = test system: 786-0 renal

CCCCCCNC(=O)CCC(NC(=O)c1ccc(N(C)Cc2cnc3nc(N)nc(N)c3n2)cc1)C(=O)NCCCCCC (centres undefined)
TGI (BT-549 breast): > 100 µM
TGI (CAKI-1 renal): > 100 µM
TGI (COLO 205 colon): > 100 µM
TGI (SNB-19 CNS): > 100 µM
TGI (RXF 393 renal): > 100 µM
TGI (SW-620 colon): > 100 µM
TGI (UACC-257 melanoma): > 100 µM
TGI (SR leukemia): > 100 µM
TGI (RPMI-8226 leukemia): > 100 µM
TGI (MDA-N): > 100 µM
TGI (786-0 renal): > 100 µM

O=c1oc2ccc([N+](=O)[O-])cc2c(Nc2ccc3c(c2)Sc2ccccc2O3)c1[N+](=O)[O-]
TGI (BT-549 breast): 64.3 µM
TGI (CAKI-1 renal): 50.6 µM
TGI (COLO 205 colon): 34.8 µM
TGI (SNB-19 CNS): 36.2 µM
TGI (RXF 393 renal): 40.2 µM
TGI (SW-620 colon): 80.6 µM
TGI (UACC-257 melanoma): 69 µM
TGI (SR leukemia): 55.2 µM
TGI (RPMI-8226 leukemia): 54.2 µM
TGI (MDA-N): 88.8 µM
TGI (786-0 renal): 39.9 µM

COC(=O)/C=C\C(C#N)(C#N)N=Cc1ccccc1
TGI (BT-549 breast): 10.8 µM
TGI (CAKI-1 renal): 7.31 µM
TGI (COLO 205 colon): 2.97 µM
TGI (SNB-19 CNS): > 58.4 µM
TGI (RXF 393 renal): 4.28 µM
TGI (SW-620 colon): 5.54 µM
TGI (UACC-257 melanoma): 12.8 µM
TGI (SR leukemia): 3.36 µM
TGI (RPMI-8226 leukemia): 2.88 µM
TGI (MDA-N): 15.1 µM
TGI (786-0 renal): 3.22 µM

COc1ccc(/C=C/C(=O)c2cc(C(C)(C)C)c(O)c(C(C)(C)C)c2)cc1OC
TGI (BT-549 breast): > 77.6 µM
TGI (CAKI-1 renal): > 90 µM
TGI (COLO 205 colon): 31.9 µM
TGI (SNB-19 CNS): 64.1 µM
TGI (RXF 393 renal): 7.69 µM
TGI (SW-620 colon): > 100 µM
TGI (UACC-257 melanoma): 23.3 µM
TGI (SR leukemia): 5.83 µM
TGI (RPMI-8226 leukemia): 12.8 µM
TGI (MDA-N): > 33.3 µM
TGI (786-0 renal): 27.4 µM

O=[N+]([O-])c1ccc(C(Nc2ccccc2)P(c2ccccc2)c2ccccc2)cc1 (centres undefined)
TGI (BT-549 breast): > 100 µM
TGI (CAKI-1 renal): > 100 µM
TGI (COLO 205 colon): > 100 µM
TGI (SNB-19 CNS): > 100 µM
TGI (RXF 393 renal): > 100 µM
TGI (SW-620 colon): > 100 µM
TGI (UACC-257 melanoma): > 100 µM
TGI (SR leukemia): > 100 µM
TGI (MDA-N): > 100 µM
TGI (786-0 renal): > 100 µM

Brc1ccc2c3c1[C@H]1O[C@H]1c1cccc(c1-3)[C@@H]1O[C@H]21
TGI (BT-549 breast): 31.5 µM
TGI (CAKI-1 renal): 31.6 µM
TGI (COLO 205 colon): 38.3 µM
TGI (SNB-19 CNS): 34.3 µM
TGI (UACC-257 melanoma): 34.2 µM
TGI (SR leukemia): > 100 µM
TGI (MDA-N): 35.4 µM
TGI (786-0 renal): 34.6 µM

O=c1cc(NNc2cccc(F)c2)[nH]c(=O)[nH]1
TGI (BT-549 breast): > 100 µM
TGI (CAKI-1 renal): 29.9 µM
TGI (COLO 205 colon): > 100 µM
TGI (SNB-19 CNS): > 100 µM
TGI (RXF 393 renal): 35.1 µM
TGI (SW-620 colon): 34.5 µM
TGI (UACC-257 melanoma): 34.8 µM
TGI (SR leukemia): 61.7 µM
TGI (RPMI-8226 leukemia): 47.4 µM
TGI (MDA-N): > 100 µM
TGI (786-0 renal): 30.1 µM

CC1(C)C(=O)c2ccccc2OC1N1CCN(C2Oc3ccccc3C(=O)C2(C)C)CC1 (centres undefined)
TGI (BT-549 breast): > 100 µM
TGI (CAKI-1 renal): > 100 µM
TGI (COLO 205 colon): > 100 µM
TGI (SNB-19 CNS): > 100 µM
TGI (RXF 393 renal): > 100 µM
TGI (SW-620 colon): > 100 µM
TGI (SR leukemia): > 100 µM
TGI (RPMI-8226 leukemia): > 100 µM
TGI (MDA-N): > 100 µM

Cc1ccc(-n2cc(-c3ccc(Cl)cc3)c3c(N/N=C4\SCC(=O)N4C)ncnc32)cc1
TGI (BT-549 breast): 82 µM
TGI (CAKI-1 renal): 32.3 µM
TGI (COLO 205 colon): 37.5 µM
TGI (SNB-19 CNS): 63.1 µM
TGI (RXF 393 renal): 48.1 µM
TGI (SW-620 colon): > 100 µM
TGI (UACC-257 melanoma): 27.1 µM
TGI (SR leukemia): > 100 µM
TGI (RPMI-8226 leukemia): > 100 µM
TGI (MDA-N): 63.4 µM
TGI (786-0 renal): 10.6 µM

CC(=O)OCc1cncn1S(=O)(=O)c1ccc(C)cc1
TGI (BT-549 breast): > 100 µM
TGI (CAKI-1 renal): > 100 µM
TGI (COLO 205 colon): > 100 µM
TGI (SNB-19 CNS): > 100 µM
TGI (RXF 393 renal): > 100 µM
TGI (SW-620 colon): > 100 µM
TGI (UACC-257 melanoma): > 100 µM
TGI (SR leukemia): > 100 µM
TGI (RPMI-8226 leukemia): > 100 µM
TGI (MDA-N): 45.6 µM
TGI (786-0 renal): > 100 µM
